{"source": "patent US10160948B2", "about": "“Pluripotent embryonic-like stem cells, compositions, methods and uses thereof” (ABT HOLDING COMPANY, priority 1999, dated 2018)", "key": {"pluripotent stem cells": {"system": "pluripotent stem cells", "experiment": "Proliferation and phenotypic responses to bioactive factors: pluripotent cells", "assay_type": "cell-based", "description": "Having access to mixed populations of progenitor stem cells, progenitor stem cell clones, and pluripotent stem cell clones permits one to address the influence of various bioactive factors (e.g. recombinant growth factors, purified compounds, and novel inductive factors) on the growth characteristics and phenotypic expression of these stem cells.\nCryopreserved cells are thawed and plated in MSC-1 at 5, 10, or 20×10^3 cells per well of gelatinized 24-well plates following the standard protocol. Twenty-four hours after initial plating the medium is changed to testing medium (TM) 1 to 6 (TM-1, TM-2, TM-3, TM-4, TM-5, or TM-6). TM-1 to TM-4 consist of Ultraculture (cat. no. 12-725B, lot. nos. OMO455 [TM-1], 1M1724 [TM-2], 2M0420 [TM-3], or 2M0274 [TM-4], Bio-Whittaker, Walkersville, Md.), medium (EMEM or Opti-MEM 0.01 mM β-mercaptoethanol), and 1% (v/v) antibiotic-antimycotic, pH 7.4. TM-5 consists of 98% (v/v) medium, 1% (v/v) HS, and 1% (v/v) antibiotic-antimycotic, pH 7.4. TM-6 consists of 98.5% (v/v) medium, 0.5% (v/v) HS, and 1% (v/v) antibiotic-antimycotic, pH 7.4. […] Four testing media (TM#'s 1-4), each containing various concentrations of Ultraculture, were used as. […] The four Ultraculture-based testing media were: TM-1=15% (v/v) Ultraculture (Lot no. OMO455): 84% (v/v) medium: 1% (v/v) antibiotics; TM-2=15% (v/v) Ultraculture (Lot no. 1M1724): 84% (v/v) medium: 1% (v/v) antibiotics; TM-3=50% (v/v) Ultraculture (Lot no. 2M0420): 49% (v/v) medium: 1% (v/v) antibiotics; and TM-4=75% (v/v) Ultraculture (Lot no. 2M0274): 24% (v/v) medium: 1% (v/v) antibiotics. Pre-incubation for 24 hr in testing medium alone is used to wash out any potential synergistic components in the MSC-1 medium. Twenty-four hours later the testing medium is changed to one of the following. For controls, TM-1 to TM-6 alone is used. To identify clones of progenitor cells, the medium is replaced with TM-1 to TM-6 containing 2 μg/ml insulin (Sigma), an agent that accelerates the appearance of phenotypic expression markers in progenitor cells (TABLE 12). To identify clones of pluripotent cells, the medium is replaced with TM-1 to TM-6 containing 10^−10 to 10^−6 M dexamethasone (Sigma), a general non-specific lineage-inductive agent (TABLE 13). Control and treated cultures are propagated for an additional 30-45 days with medium changes every other day. Four culture wells are used per concentration per experiment. During the 0-45 day time period the cultures are examined subjectively for changes in morphological characteristics on a daily basis. Alterations in phenotypic expression are correlated with the days of treatment and associated insulin or dexamethasone concentrations. The experiment is then repeated utilizing these parameters to confirm objectively the phenotypic expression markers using established histological, functional/histochemical, ELICA/flow cytometry, and molecular assays (TABLE 13)."}, "[1]": {"system": "phenotypic expression markers (ectodermal, mesodermal, endodermal, embryonic)", "experiment": "Immunochemical and histochemical phenotypic analysis of human cell lines incubated with serum + insulin (I) + dexamethasone (D)", "assay_type": "cell-based", "experimental": "Additional immunochemical and histochemical studies were performed with a series of human cell lines. Human cells CF-NHDF2 (derived from person dermis) were propogated to various doubling numbers (cell doublings of between 12 and 47), and examined, as above, for multiple induced mesodermal, ectodermal, endodermal and embryonic lineages. Human cells CM-SkM2 and CF-SkM2, were similarly examined, after propogation to 12 cell doublings. TABLES 7-9 provides the results of examination of the human cells CF-NHDF2 at progressive cell doublings, under different growth conditions. TABLE 10 provides the results of examination of the human cells CM-SkM2, and CF-SkM2 at progressive cell doublings, under different growth conditions.\nPhenotypic Analysis. The cryopreserved cells were thawed and seeded at 1×10^3 cells per well of 1% gelatinized 96-well plates (Corning, Corning, N.Y.).15,16 The cell lines were incubated with CM only (non-induced) or CM+insulin and/or dexamethasone in a comparison/contrast analysis system to ascertain induced phenotypic expression.7,15 In this assay, insulin accelerates phenotypic expression of lineage-committed progenitor cells but has no effect on the induction of lineage-commitment and subsequent phenotypic expression in pluripotent cells.\nCells were cultured for 30-56 days in CM, CM+[…] insulin, or CM+10^−6M Dexamethasone+/−insulin+1%, 5%, or 10% horse serum. […]"}}}
{"substance": "insulin", "values": [{"measurement": "Proliferation, Pluripotent: number of times the agent increased the DNA content per well versus its respective control", "setting": "pluripotent stem cells", "value": 1, "unit": "times"}, {"measurement": "activity on pluripotent and progenitor stem cells, in words", "setting": "pluripotent stem cells; pluripotent and progenitor cells", "value": "stimulated lineage-progression in all progenitor cells, but had no measurable effect on pluripotent cells"}, {"measurement": "Phenotypic Expression, Pluripotent", "setting": "pluripotent stem cells; presence and approximate distribution of differentiated phenotypes within the culture wells", "value": 0}, {"measurement": "effect on morphology and antigen staining of NHDF2 and PAL3 cells", "setting": "[1]", "value": "No change in morphology or change in antigen staining"}]}
